# Data reported in PubChem BioAssay AID651630 (Sanford-Burnham Center for Chemical Genomics, 2012).
# pIC50: −log10 of the molar value. The source made the active and inactive calls.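 The calls were made as follows: active = lipid-stain IC50 at or below a set limit, with nuclear-stain toxicity IC50 at least five times higher; inactive = the rest.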
# Key:
# DAPI = assay: TAG lipid buildup inhibition with viability readout – cell-based, panel, Nile Red and DAPI fluorescence, H9c2, dose response (AID 651630); conditions: H9c2 cells, DAPI nuclear fluorescence (cytotoxicity counter-readout), oleic acid;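 also: cells exposed to compound overnight before fixation and staining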
# TAG = assay: as above; conditions: H9c2 cells, Nile Red TAG fluorescence, oleic acid
Compound,IC50 cytotoxicity (DAPI nuclear signal decrease) (DAPI; mean of runs),IC50 cytotoxicity (DAPI nuclear signal decrease) (DAPI; run 1) [µM],IC50 cytotoxicity (DAPI nuclear signal decrease) (DAPI; run 2) [µM],IC50 (TAG; mean of runs),pIC50 (TAG; run 1),pIC50 (TAG; run 2),pIC50 (TAG; mean of runs)
CCOc1ccc(CCNC(=O)CN(C)S(=O)(=O)c2cccc3nsnc23)cc1OCC,> 25 µM (inactive),> 25,> 25,17.5 µM (inactive),4.85,4.68,
CC(C)(C)OC(=O)N(CCc1ccccc1)Cc1ccccc1OCc1cccc(NC(=O)/C=C/c2ccccc2)c1,> 25 µM (inactive),> 25,> 25,,4.68,5.05,4.82
C[C@H](CO)N1C[C@H](C)[C@H](CN(C)S(=O)(=O)c2ccc(Cl)cc2)OCc2ccccc2-c2c(n(C)c3ccccc23)C1=O,,13,> 25,> 25 µM (inactive),< 4.60,< 4.60,
O=[N+]([O-])c1ccc(Nc2nc(NC3CCCCC3)nc(N3CCCC3)n2)cc1,> 25 µM (inactive),> 25,> 25,,< 4.60,4.95,
O=C(c1cnn2c1NC(c1ccc(Br)cc1)CC2C(F)(F)F)N1CCN(C23CC4CC(CC(C4)C2)C3)CC1 (centres undefined),> 25 µM (inactive),> 25,> 25,> 25 µM (inactive),< 4.60,< 4.60,
COC(=O)C1=C(C)N(Cc2ccccc2)C(=NCC(C)C)N[C@H]1c1cccc(F)c1,> 25 µM (inactive),> 25,> 25,> 25 µM (inactive),< 4.60,< 4.60,
CN(C)CC(O)c1ccc(C=Cc2ccc(Cl)cc2)cc1 (centres undefined),> 25 µM (inactive),> 25,> 25,,4.94,4.79,4.86
CCOc1ccccc1NC(=O)c1cccc(NC(=O)c2ccco2)c1,> 25 µM (inactive),> 25,> 25,,< 4.60,5.02,
COc1ccc(CNC(=O)C2CCN(c3nc(-c4ccccc4)nc4c3CCC4)CC2)cc1,> 25 µM (inactive),> 25,> 25,,4.94,4.79,4.86
COC(=O)C1=C(C)N(Cc2ccccc2)C(=NCc2cc(OC)c(OC)c(OC)c2)N[C@H]1c1ccc(Br)cc1,> 25 µM (inactive),> 25,> 25,> 25 µM (inactive),< 4.60,< 4.60,
O=C(CC1C[C@H](C(=O)N2CCOCC2)[C@@]2(CCC3CCCC3)c3[nH]c4ccccc4c3CCN2C1=O)NCC12CC3CC(CC(C3)C1)C2 (some centres undefined),> 25 µM (inactive),> 25,> 25,> 25 µM (inactive),< 4.60,< 4.60,
CC(C)c1ccc(Nc2nc(N3CCOCC3)nc(N3CCOCC3)n2)cc1,,> 25,> 25,,5.36,5.47,5.41
c1ccc(-c2nc(SCc3nc4ccccc4[nH]3)c3oc4ccccc4c3n2)cc1,> 25 µM (inactive),> 25,> 25,,5.00,4.96,4.98
